According to US20180179198A1, “TRICYCLIC MODULATORS OF TNF SIGNALING” (AbbVie Inc., priority 2015, published 2018):

Molecular target: TNFα trimer (Homo sapiens, UniProt P01375)
Assay: TNFα FP Competitive Binding Assay
Conditions: TNFα FP competitive binding assay; class symbols A/B/C; read-out: TNF IC50
Protocol: TNFα FP Competitive Binding Assay
• 1. Assay Buffer: Prepare 1× Assay Buffer (Water with 47 mM HEPES, 47 mM NaCl, 0.9 mM EDTA, 0.0071% Triton X-100) by adding 25 mL of 1 M HEPES, 5 mL of 5 M NaCl, 1 mL of 0.5 M EDTA, and 375 μL of a 10% Triton X-100 stock to a fresh 500 mL bottle of water. • 2. Assay Mixture: Prepare fresh Assay Mixture containing 20 nM TNFα trimer (60 nM protein) and 1 nM 2′,7′-difluoro-3′,6′-dihydroxy-N-(2-(2-(2-((4-(isoquinolin-8-yl)-3-(4-(isoquinolin-8-yl)phenethoxy)benzyl)oxy)ethoxy)ethoxy)ethyl)-3-oxo-3H-spiro[isobenzofuran-1,9′-xanthene]-5-carboxamide probe in 1× Assay Buffer.
Compound Plate Preparation
Manual 12-point 1:3 Dilution Plates: (384 well polypropylene plates)
Top concentration of compounds, 10 mM in DMSO, dispensed in rows A-O in columns 1 and 13. Compounds are serially diluted 1:3 with DMSO in columns 2-12 or 14-24 using a 16-channel Matrix pipettor. Plates stored at −20° C.
Discovery Preps 12-point 1:3 Dilution Plates: (384 well assay plates)
Top concentration, 5 mM in DMSO, of compounds placed in rows A-O in columns 1 and 13. Compounds are serially diluted 1:3 with DMSO in columns 2-12 or 14-24. Compound solutions are dispensed into replicate assay plates at 410 nL per well. Plates stored at 4° C.
TNFα FP Competitive Binding Assay Protocol
• 1. Compound plates are warmed to rt. • 2. Fresh Assay Mixture is prepared. • 3. Assay Mixture (20 μL) is dispensed each well of 384 assay plates using a Thermo Multidrop Combi or 16-channel Matrix pipettor. If Manual 12-point 1:3 Dilution Plates are to be tested, Assay Mix is dispensed into empty plates. Discovery Preps 12-point 1:3 Dilution Plates already contain 410 nL compound solution in DMSO. • 4. For Manual 12-point 1:3 Dilution Plates, 0.7 μL is manually transferred using a 16-channel Matrix pipettor to replicate assay plates containing 20 μL Assay Mixture for a final top compound concentration of 338 μM (3.4% DMSO). • 5. For Discovery Preps 12-point 1:3 Dilution Plates, 20 μL Assay Mixture added the 410 nL compound solution already in the plates yields a final top compound concentration of 100 μM (2.0% DMSO). • 6. Background subtraction controls are wells P1-P8 containing only Assay Buffer. The low % inhibition controls are wells P9-P16 containing only Assay Mix. The high % inhibition are wells P17-P24 containing only 1 nM 2′,7′-difluoro-3′,6′-dihydroxy-N-(2-(2-(2-((4-(isoquinolin-8-yl)-3-(4-(isoquinolin-8-yl)phenethoxy)benzyl)oxy)ethoxy)ethoxy)ethyl)-3-oxo-3H-spiro[isobenzofuran-1,9′-xanthene]-5-carboxamide probe in 1× Assay Buffer. • 7. Plates are incubated at […] for 18-24 h in 37° C. incubator (CO2 is off). • 8. Prior to reading the assay, the plates are placed in a dark cabinet to equilibrate at rt for one hour. • 9. Background-subtracted fluorescence polarization (mP) is measured using a PerkinElmer Envision plate reader. • 10. Raw data is entered into Assay Explorer and dose-response curves are generated using a variable slope curve.

Chain of TNFα trimer (P01375 77-233 limits assumed): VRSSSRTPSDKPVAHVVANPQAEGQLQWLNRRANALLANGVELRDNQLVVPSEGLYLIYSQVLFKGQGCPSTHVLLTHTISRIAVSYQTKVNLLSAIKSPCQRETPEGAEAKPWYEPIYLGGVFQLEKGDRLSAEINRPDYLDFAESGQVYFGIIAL

Row | IC50 [nM] | Structure (SMILES)
1 | < 1000 | c1ccc2c(c1)CCC21COCc2nc3ccc(-c4cnc(N5CCCOCC5)nc4)nc3n21 (stereo not shown) [AV.3]
2 | < 1000 | c1ccc2c(c1)OCCC21COCc2nc3ccc(-c4cnc(N5CCOCC5)nc4)nc3n21 (stereo not shown) [BA.6]
3 | 1000 to 10000 | COc1ccccc1C1CCCCc2nc3ccc(-c4cnc(NCC(=O)O)nc4)cn3c21 (stereo not shown) [S.3]
4 | < 1000 | O=C1NC[C@@H]2CN(c3ncc(-c4ccc5nc6n(c5n4)C4(CCc5ccccc54)COC6)cn3)CCN12 (stereo partly shown) [AV.2]
5 | < 1000 | OC1CC2(CCN(c3ncc(-c4ccc5nc6n(c5c4)[C@@H](c4ccccc4)COC6)cn3)CC2)C1 [W.2]
6 | < 1000 | O=C1NCC2CN(c3ncc(-c4ccc5nc6n(c5c4)C(c4cccc(Cl)c4)COC6)cn3)CCN12 (stereo not shown) [AH.2]
7 | < 1000 | COc1ccccc1C1CCCc2nc3ccc(-c4cnc(N5CCCC(O)CC5)nc4)cn3c21 (stereo not shown) [AJ.2]
8 | 1000 to 10000 | CN1CCOc2cc(-c3ccc4nc5n(c4c3)C(c3ccccc3)COC5)cnc21 (stereo not shown) [T.11]
9 | < 1000 | Fc1ccc(F)c(C2COCc3nc4ccc(-c5cnc(N6CCOCC6)nc5)cc4n32)c1 (stereo not shown) [U.1]
10 | < 1000 | C[C@H]1CN(C(=O)CO)CCN1c1ncc(-c2ccc3nc4n(c3n2)C2(COC4)COc3ccccc32)cn1 (stereo partly shown) [BH.1]
11 | 1000 to 10000 | C1=C(c2ccc3nc4n(c3n2)C2(COC4)COc3ccccc32)CNC1 (stereo not shown) [BF.1]
12 | 1000 to 10000 | CC(O)(c1ncc(-c2ccc3nc4n(c3n2)[C@@H](c2ccccc2)CC4)cn1)C1CCOCC1 (stereo partly shown) [AL.4]
13 | 1000 to 10000 | CC(C)(O)COc1cc(-c2ccc3nc4n(c3n2)[C@@H](c2ccccc2)CC4)ccn1 [BC.2]
14 | < 1000 | OC1CCCN(c2ncc(-c3ccc4nc5n(c4n3)C3(COC5)COc4ccccc43)cn2)C1 (stereo not shown) [AU.4]
15 | < 1000 | CC(C)(O)c1ncc(-c2ccc3nc4n(c3c2)[C@@H](c2ccccc2)CCC4)cn1 [Y.2]
16 | 1000 to 10000 | c1ccc([C@H]2CCc3nc4ccc(-c5ccnc(OC6CCCC6)c5)nc4n32)cc1 [AS.2]
17 | < 1000 | OC1CCN(c2ncc(-c3ccc4nc5n(c4n3)C3(CCc4ccccc43)COC5)cn2)CC1(F)F (stereo not shown) [AV.4]
18 | 1000 to 10000 | c1ccc([C@H]2CCc3nc4ccc(-c5ccnc(OC6CCOC6)c5)nc4n32)cc1 (stereo partly shown) [AS.1]
19 | < 1000 | O=C1NCC2CN(c3ncc(-c4ccc5nc6n(c5n4)[C@@H](C4CCCCC4)CC6)cn3)CCN12 (stereo partly shown) [AH.5]
20 | < 1000 | CC(C)(O)c1ncc(-c2ccc3nc4n(c3n2)[C@@H](c2ccccc2)COC4)cn1 [AB.2]
21 | 1000 to 10000 | OC[C@@H]1CCCN1c1ncc(-c2ccc3nc4n(c3n2)[C@@H](c2ccccc2)CC4)cn1 [AK.1]
22 | < 1000 | O=C1NCC2CN(c3ncc(-c4ccc5nc6n(c5c4)C(c4ccccc4Cl)COC6)cn3)CCN12 (stereo not shown) [V.2]
23 | < 1000 | O=S1(=O)CCN(c2ncc(-c3ccc4nc5n(c4c3)[C@@H](c3ccccc3)COC5)cn2)CC1 [W.3]

Same assay, conditions: Table BM; read-out: TNF IC50

Row | IC50 [nM] | Structure (SMILES)
24 | 1000 to 10000 | C[C@H]1CN(c2ncc(-c3ccc4nc5n(c4n3)[C@]3(COC5)COc4ccccc43)cn2)CCN1C(=O)CO [BM.2]

Same assay, conditions: fluorescence polarization competition; 20 nM TNFα trimer, 1 nM OregonGreen488 probe; read-out: TNF IC50 (TNFα FP binding assay IC50)

Row | IC50 [nM] | Structure (SMILES)
25 | < 1000 | CCOC(=O)CNc1ncc(-c2ccc3nc4c(n3c2)C(c2ccccc2OC)CCC4)cn1 (stereo not shown) [Example 7, Ethyl 2-[[5-[9-(2-methoxyphenyl)-6,7,8,9-tetrahydropyrido[1,2-a]benzimidazol-2-yl]pyrimidin-2-yl]amino]acetate]
26 | < 1000 | C[C@H]1CN(c2ncc(-c3ccc4nc5n(c4n3)[C@@]3(COC5)COc4ccccc43)cn2)CCN1C(=O)CO [Example 75, 1-((S)-4-(5-((S)-6′,8′-Dihydro-2H-spiro[benzofuran-3,9′-pyrido[3′,2′:4,5]imidazo[2,1-c][1,4]oxazin]-2′-yl)pyrimidin-2-yl)-2-methylpiperazin-1-yl)-2-hydroxyethanone]
27 | < 1000 | CC(C)(O)c1ncc(-c2ccc3nc4n(c3c2)C(c2cccc(F)c2)CC4)cn1 (stereo not shown) [B.1]
28 | < 1000 | OC1CCN(c2ncc(-c3ccc4nc5n(c4c3)[C@@H](c3ccccc3)COC5)cn2)CC1 [Example 4, (S)-1-(5-(4-Phenyl-3,4-dihydro-1H-benzo[4,5]imidazo[2,1-c][1,4]oxazin-7-yl)pyrimidin-2-yl)piperidin-4-ol]
29 | 1000 to 10000 | FC(F)(F)C1CN(c2ncc(-c3ccc4nc5n(c4c3)[C@@H](c3ccccc3)COC5)cn2)CCO1 (stereo partly shown) [G.15]
30 | 1000 to 10000 | C1=C(c2ccc3nc4n(c3n2)[C@@H](c2ccccc2)CC4)CCN(c2ccncn2)C1 [Example 76, (R)-8-Phenyl-2-(1-(pyrimidin-4-yl)-1,2,3,6-tetrahydropyridin-4-yl)-7,8-dihydro-6H-pyrrolo[2′,1′:2,3]imidazo[4,5-b]pyridine]
31 | < 1000 | CC(C)S(=O)(=O)c1ccc(-c2ccc3nc4n(c3c2)C(c2ccccc2)CC4)cc1 (stereo not shown) [A.33]
32 | 1000 to 10000 | CCNC(=O)c1ccc(-c2ccc3nc4n(c3c2)C(c2ccccc2)CC4)cc1 (stereo not shown) [A.35]
33 | < 1000 | CC1(c2ccccc2)CCc2nc3ccc(-c4cnc(N5CCC(O)CC5)nc4)nc3n21 (stereo not shown) [Example 77, 1-(5-(8-Methyl-8-phenyl-7,8-dihydro-6H-pyrrolo[2′,1′:2,3]imidazo[4,5-b]pyridin-2-yl)pyrimidin-2-yl)piperidin-4-ol]
34 | 10000 to 100000 | c1ccc([C@@H]2CCc3nc4ccc(-c5cnc(N6CCOCC6)nc5)cc4n32)cc1 [C.1]
35 | 1000 to 10000 | N#CCc1cccc(-c2ccc3nc4n(c3c2)C(c2ccccc2)CC4)c1 (stereo not shown) [A.41]
36 | 1000 to 10000 | COCCNC(=O)c1ccc(-c2ccc3nc4n(c3c2)C(c2ccccc2)CC4)cc1 (stereo not shown) [A.39]
37 | 1000 to 10000 | CC(C)(O)c1ncc(-c2ccc3nc4n(c3n2)C(c2ccccn2)CC4)cn1 (stereo not shown) [Example 29, 2-(5-(8-(Pyridin-2-yl)-7,8-dihydro-6H-pyrrolo[2′,1′:2,3]imidazo[4,5-b]pyridin-2-yl)pyrimidin-2-yl)propan-2-ol]
38 | 1000 to 10000 | O=C(O)CCC1CCN(c2ncc(-c3ccc4nc5n(c4c3)[C@@H](c3ccccc3)COC5)cn2)CC1 [G.10]
39 | 10000 to 100000 | CC1(C)C=C(c2ccc3nc4n(c3n2)[C@@H](c2ccccc2)CC4)CN1 [Example 62]
40 | 1000 to 10000 | Cc1cncc(-c2ccc3nc4n(c3c2)C(c2ccccc2)CC4)c1 (stereo not shown) [A.25]
41 | 1000 to 10000 | CS(=O)(=O)NCc1cccc(-c2ccc3nc4n(c3c2)C(c2ccccc2)CC4)c1 (stereo not shown) [A.42]
42 | < 1000 | COc1ccccc1C1CCc2nc3ccc(-c4cnc(N5CCN6C(=O)NCC6C5)nc4)nn3c21 (stereo not shown) [Example 34, 7-(5-(8-(2-Methoxyphenyl)-7,8-dihydro-6H-cyclopenta[4,5]imidazo[1,2-b]pyridazin-2-yl)pyrimidin-2-yl)hexahydroimidazo[1,5-a]pyrazine-3(2H)-one]
43 | < 1000 | OCC1CCCN(c2ncc(-c3ccc4nc5n(c4c3)[C@@H](c3ccccc3)COC5)cn2)C1 (stereo partly shown) [G.4]
44 | 10000 to 100000 | C[C@@]1(c2ccccc2)CCc2nc3ccc(-c4cnc(N5CCC(O)CC5)nc4)nc3n21 [(S)-1-(5-(8-methyl-8-phenyl-7,8-dihydro-6H-pyrrolo[2′,1′:2,3]imidazo[4,5-b]pyridin-2-yl)pyrimidin-2-yl)piperidin-4-ol]
45 | 1000 to 10000 | O=C1OCC2CN(c3ncc(-c4ccc5nc6n(c5c4)[C@@H](c4ccccc4)COC6)cn3)CCN12 (stereo partly shown) [G.27]
46 | < 1000 | O=C1NCC2CN(c3ncc(-c4ccc5nc6n(c5c4)C(c4ccccc4C(F)(F)F)COC6)cn3)CCN12 (stereo not shown) [Example 35, 7-(5-(4-(2-(Trifluoromethyl)phenyl)-3,4-dihydro-H-benzo[4,5]imidazo[2,1-c][1,4]oxazin-7-yl)pyrimidin-2-yl)hexahydroimidazo[1,5-a]pyrazin-3(2H)-one]
